Test results from ChEMBL document CHEMBL3797180, “Squaramides with cytotoxic activity against human gastric carcinoma cells HGC-27: synthesis and mechanism of action” (Medchemcomm, 2016).
Activity calls are given as the source filed them. The rule behind the calls is not given here.

Assays:
HGC-27 [1] = assay: Cytotoxicity against HGC27 cells assessed as inhibition of cell viability at 100 uM after 24 hrs by MTT assay; type: functional, cell-based; details: Homo sapiens
HeLa [2] = assay: Cytotoxicity against human HeLa cells assessed as inhibition of cell viability at 100 uM after 24 hrs by MTT assay; type: functional, cell-based
HGC-27 [3] = assay: Cytotoxicity against HGC27 cells assessed as inhibition of cell viability at 20 uM after 24 hrs by MTT assay; type: functional, cell-based; details: Homo sapiens
HeLa [4] = assay: Cytotoxicity against human HeLa cells assessed as inhibition of cell viability at 20 uM after 24 hrs by MTT assay; type: functional, cell-based
[5] = Cytotoxicity against HGC27 cells after 24 hrs by MTT assay; type: functional, cell-based; details: Homo sapiens, HGC-27, 24 h
HeLa [6] = assay: Cytotoxicity against human HeLa cells after 24 hrs by MTT assay; type: functional, cell-based
HGC-27 [7] = assay: Induction of apoptosis in HGC27 cells assessed as necrotic cells at 2 uM after 24 hrs by Annexin-V-FITC/propidium iodide staining-based flow cytometry; type: functional, Homo sapiens
HGC-27 [8] = assay: Induction of apoptosis in HGC27 cells assessed as early apoptotic cells at 2 uM after 24 hrs by Annexin-V-FITC/propidium iodide staining-based flow cytometry (reference value: 6.7%); type: functional, Homo sapiens
HGC-27 [9] = assay: Induction of apoptosis in HGC27 cells assessed as late apoptotic cells at 2 uM after 24 hrs by Annexin-V-FITC/propidium iodide staining-based flow cytometry (reference value: 6.7%); type: functional, Homo sapiens
HGC-27 [10] = assay: Induction of apoptosis in HGC27 cells assessed as apoptotic cells after 24 hrs by Annexin-V-FITC/propidium iodide staining-based flow cytometry; type: functional, cell-based; details: Homo sapiens

Row | SMILES | inhibition (HGC-27 [1]) | inhibition (HeLa [2]) | inhibition (HGC-27 [3]) | inhibition (HeLa [4]) | also measured
1 | COc1ccc(Nc2c(OC)c(=O)c2=O)cc1 | inactive | inactive | – | – | –
2 | CN(C)[C@@H]1CCCC[C@H]1Nc1c(Nc2cc(C(F)(F)F)cc(C(F)(F)F)c2)c(=O)c1=O | Active | Active | inactive | inactive | –
3 | COc1c(Nc2ccc([N+](=O)[O-])cc2)c(=O)c1=O | inactive | inactive | – | – | –
4 | COc1c(Nc2ccc(C(F)(F)F)cc2)c(=O)c1=O | inactive | inactive | – | – | –
5 | C=CC1CN2CCC1CC2[C@@H](Nc1c(Nc2cc(C(F)(F)F)cc(C(F)(F)F)c2)c(=O)c1=O)c1ccnc2ccccc12 (stereo partly drawn) | Active | Active | Active | Active | IC50 [5]: 8.12 µM; IC50 (HeLa [6]): 11.3 µM
6 | C=CC1CN2CCC1CC2[C@@H](Nc1c(NCc2cc(C(F)(F)F)cc(C(F)(F)F)c2)c(=O)c1=O)c1ccnc2ccc(OC)cc12 (stereo partly drawn) | Active | Active | – | – | –
7 | O=c1c(Nc2cc(C(F)(F)F)cc(C(F)(F)F)c2)c(N[C@H]2c3ccccc3C[C@H]2O)c1=O | Active | Active | – | – | –
8 | COc1c(N(C)c2ccccc2)c(=O)c1=O | inactive | inactive | – | – | –
9 | COc1c(Nc2ccccc2)c(=O)c1=O | inactive | inactive | – | – | –
10 | O=c1c(Nc2ccc(C(F)(F)F)cc2)c(N[C@@H]2CCCC[C@@H]2N2CCCCC2)c1=O | – | – | inactive | inactive | –
11 | COc1ccc(Nc2c(OC)c(=O)c2=O)c(OC)c1 | inactive | inactive | – | – | –
12 | O=c1c(Nc2cc(F)cc(F)c2)c(N[C@@H](c2ccccc2)C(O)(c2ccccc2)c2ccccc2)c1=O | – | – | Active | inactive | IC50 [5]: 3.39 µM; IC50 (HeLa [6]): > 20 µM
13 | COc1c(Nc2ccc(C(C)(C)C)cc2)c(=O)c1=O | inactive | inactive | – | – | –
14 | COc1c(Nc2cc(F)cc(F)c2)c(=O)c1=O | inactive | inactive | – | – | –
15 | COc1c(Nc2cc(F)c(F)c(F)c2)c(=O)c1=O | inactive | inactive | – | – | –
16 | COc1c(Nc2cc(OC(C)C)c(Cl)cc2Cl)c(=O)c1=O | inactive | inactive | – | – | –
17 | O=c1c(Nc2ccc3ccccc3c2-c2c(O)ccc3ccccc23)c(N[C@@H]2CCCC[C@H]2N2CCCCC2)c1=O | – | – | Active | inactive | IC50 [5]: 11.1 µM; IC50 (HeLa [6]): > 20 µM
18 | Cc1ccc(S(=O)(=O)N[C@@H]2CCCC[C@H]2Nc2c(Nc3cc(C(F)(F)F)cc(C(F)(F)F)c3)c(=O)c2=O)cc1 | Active | Active | inactive | inactive | –

Row | SMILES | inhibition (HGC-27 [1]) | inhibition (HeLa [2]) | inhibition (HGC-27 [3]) | inhibition (HeLa [4]) | also measured
19 | C=CC1CN2CCC1CC2[C@H](Nc1c(NCc2cc(C(F)(F)F)cc(C(F)(F)F)c2)c(=O)c1=O)c1ccnc2ccccc12 (stereo partly drawn) | Active | Active | Active | Active | IC50 [5]: 3.01 µM; IC50 (HeLa [6]): 12.1 µM
20 | O=c1c(NCc2cc(C(F)(F)F)cc(C(F)(F)F)c2)c(N[C@@H]2CCCC[C@H]2N2CCCCC2)c1=O | Active | Active | – | – | –
21 | C[C@H](c1c(Nc2cc(F)cc(F)c2)c(=O)c1=O)c1cccc2ccccc12 | – | – | Active | Active | –
22 | Cc1ccc(S(=O)(=O)N[C@@H]2CCCC[C@H]2Nc2c(NCc3cc(C(F)(F)F)cc(C(F)(F)F)c3)c(=O)c2=O)cc1 | Active | Active | inactive | inactive | –
23 | COc1cccc2c1C(=O)c1c(O)c3c(c(O)c1C2=O)C[C@@](O)(C(=O)CO)C[C@@H]3O[C@H]1C[C@H](N)[C@H](O)[C@H](C)O1 [DOXORUBICIN] | – | – | – | – | Activity (HGC-27 [7]): 32.4%; IC50 [5]: 37.4 µM; Activity (HGC-27 [8]): 3.2%; Activity (HGC-27 [9]): 16.7%; Activity (HGC-27 [10]): Dose-dependent effect
24 | O=c1c(Nc2ccc(C(F)(F)F)cc2)c(N[C@@H]2CCCC[C@H]2N2CCCCC2)c1=O | – | – | inactive | inactive | –
25 | C=CC1CN2CCC1CC2[C@@H](Nc1c(Nc2ccc(C(F)(F)F)cc2)c(=O)c1=O)c1ccnc2ccc(OC)cc12 (stereo partly drawn) | Active | Active | Active | inactive | IC50 [5]: 12.8 µM; IC50 (HeLa [6]): > 20 µM
26 | O=c1c(Nc2cc(C(F)(F)F)cc(C(F)(F)F)c2)c(N[C@@H](CO)Cc2ccccc2)c1=O | Active | Active | inactive | inactive | –
27 | CCc1cc(C#N)ccc1Nc1c(OC)c(=O)c1=O | inactive | inactive | – | – | –
28 | O=c1c(Nc2cc(C(F)(F)F)cc(C(F)(F)F)c2)c(N[C@@H]2CCCC[C@H]2N2CCCCC2)c1=O | Active | Active | Active | Active | –
29 | C[C@@H](Nc1c(Nc2cc(C(F)(F)F)cc(C(F)(F)F)c2)c(=O)c1=O)c1ccccc1 | Active | Active | inactive | inactive | –
30 | COc1c(N[C@@H]2CCCC[C@H]2NS(=O)(=O)c2ccc(C)cc2)c(=O)c1=O | inactive | inactive | – | – | –
31 | C=CC1CN2CCC1CC2[C@@H](Nc1c(Nc2cc(C(F)(F)F)cc(C(F)(F)F)c2)c(=O)c1=O)c1ccnc2ccc(OC)cc12 (stereo partly drawn) | Active | Active | Active | Active | IC50 [5]: 8.21 µM; IC50 (HeLa [6]): 15.2 µM
32 | COc1c(N[C@H]2c3ccccc3C[C@H]2O)c(=O)c1=O | inactive | inactive | – | – | –
33 | C=CC1CN2CCC1CC2[C@@H](Nc1c(Nc2ccc(C(F)(F)F)cc2)c(=O)c1=O)c1ccnc2ccccc12 (stereo partly drawn) | Active | Active | Active | Active | IC50 [5]: 4.53 µM; IC50 (HeLa [6]): 10.8 µM
34 | COc1c(N[C@@H](C)c2cccc3ccccc23)c(=O)c1=O | inactive | inactive | – | – | –
35 | O=c1c(Nc2ccc3ccccc3c2-c2c(O)ccc3ccccc23)c(N[C@@H]2CCCC[C@H]2N2CCCC2)c1=O | – | – | Active | inactive | IC50 [5]: 10.8 µM; IC50 (HeLa [6]): > 20 µM
36 | O=c1c(Nc2cc(F)c(F)c(F)c2)c(N[C@@H]2CCCC[C@H]2N2CCCCC2)c1=O | – | – | inactive | inactive | –
